{
  "source": "PubChem BioAssay AID1963976",
  "about": "(Molecular Pharmacology Branch, DTP, NCI, 2024);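 also: spheroids exposed to compounds for 7 days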",
  "test_system": "435261-313-R-J1-PDC tumor spheroid viability",
  "experiment": "Anticancer human tumor 435261-313-R-J1-PDC patient-derived colon adenocarcinoma cell line growth inhibition [PI3K]",
  "conditions": "spheroids with HUVEC and MSC; for IC50: curve of first compound; for viability, T/C: stronger effect = lower value",
  "procedure,_shortened": "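Stroma-containing spheroids: tumor line, pooled-donor HUVEC, hMSC. Treatments: targeted agents with PI3K inhibitors. Dosing: clinically relevant, half-log spacing, 10 microM ceiling without known Cmax. Read-out: cell viability.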",
  "data": [
    {"smiles": "C[C@@H](NC(=O)c1ncnc(N)c1Cl)c1ncc(C(=O)Nc2cc(C(F)(F)F)c(Cl)cn2)s1", "note": "+ CC(Nc1ncnc2nc[nH]c12)c1cc2cccc(Cl)c2c(=O)n1-c1ccccc1", "values": [
      {"measurement": "IC50", "setting": "second compound 0.0316 µM", "result": "> 10", "unit": "µM"},
      {"measurement": "IC50", "setting": "second compound 0.1 µM", "result": "> 10", "unit": "µM"},
      {"measurement": "IC50", "setting": "second compound 0.316 µM", "result": "> 10", "unit": "µM"},
      {"measurement": "IC50", "setting": "second compound 1 µM", "result": "> 10", "unit": "µM"},
      {"measurement": "IC50", "setting": "second compound 3.16 µM", "result": "> 10", "unit": "µM"},
      {"measurement": "IC50", "setting": "second compound 10 µM", "result": 3.52, "unit": "µM"},
      {"measurement": "viability, T/C", "setting": "second compound 0.0316 µM, first compound 0.0316 µM", "result": 158, "unit": "%"},
      {"measurement": "viability, T/C", "setting": "second compound 0.0316 µM, first compound 0.1 µM", "result": 182, "unit": "%"},
      {"measurement": "viability, T/C", "setting": "second compound 0.0316 µM, first compound 0.316 µM", "result": 124, "unit": "%"},
      {"measurement": "viability, T/C", "setting": "second compound 0.0316 µM, first compound 1 µM", "result": 145, "unit": "%"},
      {"measurement": "viability, T/C", "setting": "second compound 0.0316 µM, first compound 3.16 µM", "result": 153, "unit": "%"},
      {"measurement": "viability, T/C", "setting": "second compound 0.0316 µM, first compound 10 µM", "result": 118, "unit": "%"},
      {"measurement": "viability, T/C", "setting": "second compound 0.1 µM, first compound 0.0316 µM", "result": 128, "unit": "%"},
      {"measurement": "viability, T/C", "setting": "second compound 0.1 µM, first compound 0.1 µM", "result": 172, "unit": "%"},
      {"measurement": "viability, T/C", "setting": "second compound 0.1 µM, first compound 0.316 µM", "result": 153, "unit": "%"},
      {"measurement": "viability, T/C", "setting": "second compound 0.1 µM, first compound 1 µM", "result": 144, "unit": "%"},
      {"measurement": "viability, T/C", "setting": "second compound 0.1 µM, first compound 3.16 µM", "result": 147, "unit": "%"},
      {"measurement": "viability, T/C", "setting": "second compound 0.1 µM, first compound 10 µM", "result": 104, "unit": "%"},
      {"measurement": "viability, T/C", "setting": "second compound 0.316 µM, first compound 0.0316 µM", "result": 112, "unit": "%"},
      {"measurement": "viability, T/C", "setting": "second compound 0.316 µM, first compound 0.1 µM", "result": 150, "unit": "%"},
      {"measurement": "viability, T/C", "setting": "second compound 0.316 µM, first compound 0.316 µM", "result": 135, "unit": "%"},
      {"measurement": "viability, T/C", "setting": "second compound 0.316 µM, first compound 1 µM", "result": 145, "unit": "%"},
      {"measurement": "viability, T/C", "setting": "second compound 0.316 µM, first compound 3.16 µM", "result": 150, "unit": "%"},
      {"measurement": "viability, T/C", "setting": "second compound 0.316 µM, first compound 10 µM", "result": 64.8, "unit": "%"},
      {"measurement": "viability, T/C", "setting": "second compound 1 µM, first compound 0.0316 µM", "result": 146, "unit": "%"},
      {"measurement": "viability, T/C", "setting": "second compound 1 µM, first compound 0.1 µM", "result": 146, "unit": "%"},
      {"measurement": "viability, T/C", "setting": "second compound 1 µM, first compound 0.316 µM", "result": 147, "unit": "%"},
      {"measurement": "viability, T/C", "setting": "second compound 1 µM, first compound 1 µM", "result": 175, "unit": "%"},
      {"measurement": "viability, T/C", "setting": "second compound 1 µM, first compound 3.16 µM", "result": 144, "unit": "%"},
      {"measurement": "viability, T/C", "setting": "second compound 1 µM, first compound 10 µM", "result": 96.1, "unit": "%"},
      {"measurement": "viability, T/C", "setting": "second compound 3.16 µM, first compound 0.0316 µM", "result": 119, "unit": "%"},
      {"measurement": "viability, T/C", "setting": "second compound 3.16 µM, first compound 0.1 µM", "result": 141, "unit": "%"},
      {"measurement": "viability, T/C", "setting": "second compound 3.16 µM, first compound 0.316 µM", "result": 111, "unit": "%"},
      {"measurement": "viability, T/C", "setting": "second compound 3.16 µM, first compound 1 µM", "result": 148, "unit": "%"},
      {"measurement": "viability, T/C", "setting": "second compound 3.16 µM, first compound 3.16 µM", "result": 91.4, "unit": "%"},
      {"measurement": "viability, T/C", "setting": "second compound 3.16 µM, first compound 10 µM", "result": 44.6, "unit": "%"},
      {"measurement": "viability, T/C", "setting": "second compound 10 µM, first compound 0.0316 µM", "result": 72.8, "unit": "%"},
      {"measurement": "viability, T/C", "setting": "second compound 10 µM, first compound 0.1 µM", "result": 131, "unit": "%"},
      {"measurement": "viability, T/C", "setting": "second compound 10 µM, first compound 0.316 µM", "result": 88.7, "unit": "%"},
      {"measurement": "viability, T/C", "setting": "second compound 10 µM, first compound 1 µM", "result": 93.2, "unit": "%"},
      {"measurement": "viability, T/C", "setting": "second compound 10 µM, first compound 3.16 µM", "result": 51, "unit": "%"},
      {"measurement": "viability, T/C", "setting": "second compound 10 µM, first compound 10 µM", "result": 39.9, "unit": "%"}
    ]}
  ]
}
